This data set in a line: Patch irritancy test on test subject's skin. The following applies: control diluted to 0.2 percent of the original volume into deionized water.

On to `CCCCCCCCCCCCOS(=O)(=O)[O-].[Na+]` [Sodium Lauryl Sulfate], for which the Classification entry is recorded as “Experimental Cumulative” and the “Irritancy Score” value was determined as 14918.5.

Values taken from patent US20100261630A1, “ANTIMICROBIAL HAND WASH FORMULATIONS” (priority 2006, published 2010).
